Assay results as given in patent US20090054392A1, “NAPHTHYLPYRIMIDINE, NAPHTHYLPYRAZINE AND NAPHTHYLPYRIDAZINE ANALOGS AND THEIR USE AS AGONISTS OF THE WNT-BETA-CATENIN CELLULAR MESSAGING SYSTEM” (Wyeth, priority 2007, published 2009).

Tested on: Dkk1-LRP5-TCF-Luciferase
Experiment: Functional Dkk1-LRP5-TCF-Luciferase Assay in U2OS Cells
Settings: for EC50 / fold induction at 2 µM / fold induction at 20 µM: Homo sapiens, U2OS; for fold induction at 2 µM: read-out: B = TCF ACTIVITY/DMSO CONTROL Fold induction @ 2.0 uM, 2.0 uM compound; for fold induction at 20 µM: read-out: C = TCF ACTIVITY/DMSO CONTROL Fold induction @ 20.0 uM, 20.0 uM compound; for A = MAX FOLD Induction/DMSO CONTROL: maximum fold induction over DMSO control
Procedure: Biological Evaluation—Functional Dkk1-LRP5-TCF-Luciferase Assay in U2OS Cells
Frozen U2OS-Dkk1-HTS Reporter cells generation: U2OS Human Bone derived cells (Osteosarcoma) are grown in McCoy's 5A Medium (Modified), with L -glutamine (GIBCO Cat No. 16600-082)+1% Pen-Strep+5% FBS) plated at 1×10^7 cells/T175 cm flask. The next day, the cells are co-transfected overnight with the following plasmids: (a) Test reporter (16×TCF-TK-FireFly-Luci), (b) Internal Control Reporter (TK-Renilla-Luci), (c) Wnt3a and (d) Dkk1. GIBCO's Lipofectamine 2000 and OptiMEM are used for the transfection. After a minimum of 4 hr of transfection at 37° C., the plasmid-transfected cells are trypsinized, counted, and suspended in freezing medium (95% FBS+5% DMSO). The reporter cells are frozen at 1×10^7/ml concentrations, aliquoted into 0.5 ml or 2.5 ml/tube and stored at 70° C.
The following day, test compounds are added under HTS setup by Plate Track into 384 well plates (white, TC treated, Falcon plate) such that the final concentration of the compounds in 20 μL/well cell will be 5 μg/ml (final concentration of DMSO=0.25% and final compound concentration=20 μM). Vials of frozen reporter cells are thawed by warming the vial in a 37° C. water bath for 60-120 seconds with some shaking until the cells formed a suspension. The thawed cells are transferred into a cold 50 ml (or larger) tube and mixed well by gentle pipetting. The appropriate amount of cold Phenol Red Free RPMI medium-1640 (GIBCO, Cat #11835-030) with L-glutamine is added, both with ˜5% FBS (GIBCO-BRL, Cat. #16000-044), so that 20 μl of the final cell suspension will contain ˜5,000 cells. The cell dilution is done such that the final concentration of FBS is ˜5%.
Diluted cells (20 μl) are added into each well in a 384 well plate. The plate is incubated at 37° C. under 5% CO2 for ˜20 h. Bright-Glo substrate, 2.5 μl/well is added, and the Fire Fly Luciferase is measured using VLUX (60 second exposure) immediately after the substrate is added. Test compounds are dissolved in DMSO (100%) and added to specified wells. Raw luciferase signal data obtained as relative luminescence units (RLUs) for the test compounds are normalized to the signal of the mean of the sample reporter cell plate with DMSO.

SMILES: O=C1CCCCN1C[C@@H]1CCN(c2nccc(-c3ccc4ccccc4c3)n2)C1 [1-({(3R)-1-[4-(2-naphthyl)pyrimidin-2-yl]pyrrolidin-3-yl}methyl)piperidin-2-one]
- EC50: 6850 nM
- fold induction at 2 µM: 1.14
- fold induction at 20 µM: 2.33

SMILES: O=C1CCCCN1C[C@H]1CCN(c2nccc(-c3ccc4ccccc4c3)n2)C1 [1-({(3S)-1-[4-(2-naphthyl)pyrimidin-2-yl]pyrrolidin-3-yl}methyl)piperidin-2-one]
- fold induction at 2 µM: 1.07
- fold induction at 20 µM: 2.45
- A = MAX FOLD Induction/DMSO CONTROL: 2.000 fold

SMILES: c1ccc2cc(-c3ccnc(N4CCCNCC4)n3)ccc2c1 [1-[4-(2-naphthyl)pyrimidin-2-yl]-1,4-diazepane]
- fold induction at 2 µM: 1.36
- fold induction at 20 µM: 0.85

SMILES: O=[N+]([O-])CC1(O)CCN(c2nccc(-c3ccc4ccccc4c3)n2)CC1 [1-[4-(2-naphthyl)pyrimidin-2-yl]-4-(nitromethyl)piperidin-4-ol]
- fold induction at 2 µM: 1.19
- fold induction at 20 µM: 1.49

SMILES: O=C(N1CCCN(c2nccc(-c3ccc4ccccc4c3)n2)CC1)C(F)(F)F [1-[4-(2-naphthyl)pyrimidin-2-yl]-4-(trifluoroacetyl)-1,4-diazepane]
- fold induction at 20 µM: 1.24

SMILES: CCC(=O)N1CCCN(c2nccc(-c3ccc4ccccc4c3)n2)CC1 [1-[4-(2-naphthyl)pyrimidin-2-yl]-4-propionyl-1,4-diazepane]
- EC50: 28500 nM
- fold induction at 20 µM: 2.23
- A = MAX FOLD Induction/DMSO CONTROL: 2.260 fold

SMILES: NC1CCCN(c2nccc(-c3ccc4ccccc4c3)n2)CC1 (stereo not drawn) [1-[4-(2-naphthyl)pyrimidin-2-yl]azepan-4-amine]
- fold induction at 2 µM: 1.95

SMILES: c1ccc2cc(-c3ccnc(N4CCCCCC4)n3)ccc2c1 [1-[4-(2-naphthyl)pyrimidin-2-yl]azepane]
- fold induction at 2 µM: 1.54

SMILES: NC1CCN(c2nccc(-c3ccc4ccccc4c3)n2)CC1 [1-[4-(2-naphthyl)pyrimidin-2-yl]piperidin-4-amine]
- EC50: 970 nM
- fold induction at 2 µM: 2.11
- A = MAX FOLD Induction/DMSO CONTROL: 1.580 fold

SMILES: OC1CCN(c2nccc(-c3ccc4ccccc4c3)n2)CC1 [1-[4-(2-naphthyl)pyrimidin-2-yl]piperidin-4-ol]
- EC50: 1280 nM
- fold induction at 2 µM: 1.35
- fold induction at 20 µM: 0.28
- A = MAX FOLD Induction/DMSO CONTROL: 2.224 fold

SMILES: O=C1CCN(c2nccc(-c3ccc4ccccc4c3)n2)CC1 [1-[4-(2-naphthyl)pyrimidin-2-yl]piperidin-4-one]
- fold induction at 2 µM: 1.43
- fold induction at 20 µM: 1.19

SMILES: NC(=O)C1CCCN(c2nccc(-c3ccc4ccccc4c3)n2)C1 (stereo not drawn) [1-[4-(2-naphthyl)pyrimidin-2-yl]piperidine-3-carboxamide]
- EC50: 1260 nM
- fold induction at 2 µM: 2.17
- fold induction at 20 µM: 2.7
- A = MAX FOLD Induction/DMSO CONTROL: 2.230 fold

SMILES: O=CC1CCN(c2nccc(-c3ccc4ccccc4c3)n2)CC1 [1-[4-(2-naphthyl)pyrimidin-2-yl]piperidine-4-carbaldehyde]
- fold induction at 2 µM: 1.51
- fold induction at 20 µM: 0.25

SMILES: N#CC1CCN(c2nccc(-c3ccc4ccccc4c3)n2)CC1 [1-[4-(2-naphthyl)pyrimidin-2-yl]piperidine-4-carbonitrile]
- EC50: 1080 nM
- fold induction at 2 µM: 2.79
- A = MAX FOLD Induction/DMSO CONTROL: 5.015 fold

SMILES: NC(=S)C1CCN(c2nccc(-c3ccc4ccccc4c3)n2)CC1 [1-[4-(2-naphthyl)pyrimidin-2-yl]piperidine-4-carbothioamide]
- fold induction at 2 µM: 1.74
- fold induction at 20 µM: 1.99
- A = MAX FOLD Induction/DMSO CONTROL: 2.070 fold

SMILES: NC(=O)C1CCN(c2nccc(-c3ccc4ccccc4c3)n2)CC1 [1-[4-(2-naphthyl)pyrimidin-2-yl]piperidine-4-carboxamide]
- fold induction at 2 µM: 1.62
- fold induction at 20 µM: 1.15
- A = MAX FOLD Induction/DMSO CONTROL: 1.660 fold

SMILES: O=C(O)C1CCN(c2nccc(-c3ccc4ccccc4c3)n2)CC1 [1-[4-(2-naphthyl)pyrimidin-2-yl]piperidine-4-carboxylic acid]
- fold induction at 2 µM: 1.78
- fold induction at 20 µM: 0.57

SMILES: Cc1ccc(S(=O)(=O)N2CCCN(c3nccc(-c4ccc5ccccc5c4)n3)CC2)cc1 [1-[(4-methylphenyl)sulfonyl]-4-[4-(2-naphthyl)pyrimidin-2-yl]-1,4-diazepane]
- fold induction at 2 µM: 1.76

SMILES: NC[C@H]1CC[C@H](c2nccc(-c3ccc4ccccc4c3)n2)CC1 [1-[trans-4-(4-naphthalen-2-ylpyrimidin-2-yl)cyclohexyl]methanamine]
- fold induction at 2 µM: 3.5

SMILES: CC(=O)N1CCCN(c2nccc(-c3ccc4ccccc4c3)n2)CC1 [1-acetyl-4-[4-(2-naphthyl)pyrimidin-2-yl]-1,4-diazepane]
- EC50: 7300 nM
- fold induction at 2 µM: 1.46
- fold induction at 20 µM: 3.21
- A = MAX FOLD Induction/DMSO CONTROL: 1.757 fold

SMILES: O=C(c1ccccc1)N1CCCN(c2nccc(-c3ccc4ccccc4c3)n2)CC1 [1-benzoyl-4-[4-(2-naphthyl)pyrimidin-2-yl]-1,4-diazepane]
- fold induction at 2 µM: 1.06
- fold induction at 20 µM: 0.35

SMILES: NCC1CCN(c2ccnc(-c3ccc4ccccc4c3)n2)CC1 [1-{1-[2-(2-naphthyl)pyrimidin-4-yl]piperidin-4-yl}methanamine]
- EC50: 787 nM
- fold induction at 2 µM: 3.22
- fold induction at 20 µM: 0.003
- A = MAX FOLD Induction/DMSO CONTROL: 5.673 fold

SMILES: NCC1CCN(c2nccc(-c3ccc4ccccc4c3)n2)c2ccccc21 (stereo not drawn) [1-{1-[4-(2-naphthyl)pyrimidin-2-yl]-1,2,3,4-tetrahydroquinolin-4-yl}methanamine]
- A = MAX FOLD Induction/DMSO CONTROL: 1.820 fold

SMILES: NCC1CN(c2nccc(-c3ccc4ccccc4c3)n2)C1 [1-{1-[4-(2-naphthyl)pyrimidin-2-yl]azetidin-3-yl}methanamine]
- EC50: 22900 nM
- fold induction at 2 µM: 2.56
- fold induction at 20 µM: 0.71
- A = MAX FOLD Induction/DMSO CONTROL: 3.080 fold

SMILES: O=c1[nH]c2ccccc2n1C1CCN(c2nccc(-c3ccc4ccccc4c3)n2)CC1 [1-{1-[4-(2-naphthyl)pyrimidin-2-yl]piperidin-4-yl}-1,3-dihydro-2H-benzimidazol-2-one]
- fold induction at 2 µM: 1.03
- fold induction at 20 µM: 0.01

SMILES: CC(N)C1CCN(c2nccc(-c3ccc4ccccc4c3)n2)CC1 (stereo not drawn) [1-{1-[4-(2-naphthyl)pyrimidin-2-yl]piperidin-4-yl}ethanamine]
- EC50: 1090 nM
- fold induction at 2 µM: 2.33
- fold induction at 20 µM: 0.006
- A = MAX FOLD Induction/DMSO CONTROL: 2.891 fold

SMILES: NCC1CCN(c2nccc(-c3ccc4ccccc4c3)n2)C1 (stereo not drawn) [1-{1-[4-(2-naphthyl)pyrimidin-2-yl]pyrrolidin-3-yl}methanamine]
- EC50: 2260 nM
- fold induction at 2 µM: 4.53
- fold induction at 20 µM: 0.01
- A = MAX FOLD Induction/DMSO CONTROL: 4.063 fold

SMILES: CC(C)COc1ccc2cc(-c3ccnc(N4CCC(CN)CC4)n3)ccc2c1 [1-{1-[4-(6-isobutoxy-2-naphthyl)pyrimidin-2-yl]piperidin-4-yl}methanamine]
- fold induction at 2 µM: 1.54

SMILES: COc1ccc2cc(-c3ccnc(N4CCC(CN)CC4)n3)ccc2c1 [1-{1-[4-(6-methoxy-2-naphthyl)pyrimidin-2-yl]piperidin-4-yl}methanamine]
- EC50: 1060 nM
- fold induction at 2 µM: 2.27
- A = MAX FOLD Induction/DMSO CONTROL: 3.233 fold

SMILES: Cc1ccc2cc(-c3ccnc(N4CCC(CN)CC4)n3)ccc2c1 [1-{1-[4-(6-methyl-2-naphthyl)pyrimidin-2-yl]piperidin-4-yl}methanamine]
- EC50: 1220 nM
- fold induction at 2 µM: 2.88
- A = MAX FOLD Induction/DMSO CONTROL: 2.820 fold

SMILES: NCC1CCN(c2nccc(-c3ccc4cc(-c5ccccc5)ccc4c3)n2)CC1 [1-{1-[4-(6-phenyl-2-naphthyl)pyrimidin-2-yl]piperidin-4-yl}methanamine]
- fold induction at 2 µM: 1.63

SMILES: CCCOc1ccc2cc(-c3ccnc(N4CCC(CN)CC4)n3)ccc2c1 [1-{1-[4-(6-propoxy-2-naphthyl)pyrimidin-2-yl]piperidin-4-yl}methanamine]
- fold induction at 2 µM: 1.33

SMILES: C=Cc1ccc2cc(-c3ccnc(N4CCC(CN)CC4)n3)ccc2c1 [1-{1-[4-(6-vinyl-2-naphthyl)pyrimidin-2-yl]piperidin-4-yl}methanamine]
- fold induction at 2 µM: 1.21

SMILES: NCC1CCN(c2cc(-c3ccc4ccccc4c3)cnn2)CC1 [1-{1-[5-(2-naphthyl)pyridazin-3-yl]piperidin-4-yl}methanamine]
- fold induction at 2 µM: 1.58
- fold induction at 20 µM: 0.4

SMILES: NCC1CCN(c2ncc(-c3ccc4ccccc4c3)cn2)CC1 [1-{1-[5-(2-naphthyl)pyrimidin-2-yl]piperidin-4-yl}methanamine]
- EC50: 1200 nM
- fold induction at 2 µM: 3.1
- A = MAX FOLD Induction/DMSO CONTROL: 2.900 fold

SMILES: NCC1CCN(c2cncc(-c3ccc4ccccc4c3)n2)CC1 [1-{1-[6-(2-naphthyl)pyrazin-2-yl]piperidin-4-yl}methanamine]
- EC50: 1160 nM
- fold induction at 2 µM: 1.6
- A = MAX FOLD Induction/DMSO CONTROL: 2.920 fold

SMILES: NCC1CCN(c2cc(-c3ccc4ccccc4c3)ncn2)CC1 [1-{1-[6-(2-naphthyl)pyrimidin-4-yl]piperidin-4-yl}methanamine]
- EC50: 1590 nM
- fold induction at 2 µM: 2.79
- fold induction at 20 µM: 1
- A = MAX FOLD Induction/DMSO CONTROL: 3.226 fold

SMILES: NCc1ccc(-c2nccc(-c3ccc4ccccc4c3)n2)cc1 [1-{4-[4-(2-naphthyl)pyrimidin-2-yl]phenyl}methanamine]
- fold induction at 2 µM: 2.5

SMILES: NCC1CC2CCC(C1)N2c1nccc(-c2ccc3ccccc3c2)n1 (stereo not drawn) [1-{8-[4-(2-naphthyl)pyrimidin-2-yl]-8-azabicyclo[3.2.1]oct-3-yl}methanamine]
- EC50: 550 nM
- fold induction at 2 µM: 1.5

SMILES: NC[C@@H]1C[C@@H]2C[C@H]1CN2c1nccc(-c2ccc3ccccc3c2)n1 [1-{(1R,4R,5R)-2-[4-(2-naphthyl)pyrimidin-2-yl]-2-azabicyclo[2.2.1]hept-5-yl}methanamine]
- fold induction at 2 µM: 1.4

SMILES: NC[C@H]1C[C@@H]2C[C@H]1CN2c1nccc(-c2ccc3ccccc3c2)n1 [1-{(1R,4R,5S)-2-[4-(2-naphthyl)pyrimidin-2-yl]-2-azabicyclo[2.2.1]hept-5-yl}methanamine]
- fold induction at 2 µM: 1.8
